Source: ChEMBL document CHEMBL5537192, “Specific Inhibitors of Mitochondrial Deacylase Sirtuin 4 Endowed with Cellular Activity” (J Med Chem, 2024)
pIC50: −log10 of the molar value.

Tests used:
C2C12 = assay: Cytotoxicity against mouse C2C12 cells assessed as effect o cell viability at 1 to 100 uM incubated for 4 hrs by trypan blue reagent based phase contrast microscopic analysis; format: toxicity; conditions: c2c12, 4 h, dose 1-100 µM
[1] = molecular target: T1, NAD-dependent protein lipoamidase sirtuin-4, mitochondrial (Homo sapiens, UniProt Q9Y6E7); assay: Inhibition of N-terminal 6His-tagged human Sirt4 (25 to 314 residues) expressed in Escherichia coli CodonPlus(DE3) cells using HMG-FdL as substrate at 100 uM preincubated for 20 mins followed by NAM addition and measured after 45 mins in presence of NAD+ by fluorescence based assay relative to control
T1 sequence (Q9Y6E7 whole entry): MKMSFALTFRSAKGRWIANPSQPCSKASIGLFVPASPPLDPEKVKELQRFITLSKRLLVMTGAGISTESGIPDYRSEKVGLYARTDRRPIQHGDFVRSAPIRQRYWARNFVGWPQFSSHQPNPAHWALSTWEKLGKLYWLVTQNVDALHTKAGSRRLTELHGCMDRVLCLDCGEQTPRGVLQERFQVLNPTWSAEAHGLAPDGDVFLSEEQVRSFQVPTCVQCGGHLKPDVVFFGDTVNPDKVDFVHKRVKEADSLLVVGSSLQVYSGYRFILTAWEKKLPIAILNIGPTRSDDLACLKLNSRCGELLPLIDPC

| Compound | Activity (C2C12) | pIC50 [1] |
| --- | --- | --- |
| CCCc1cc(=O)[nH]c(SCC(=O)Nc2ccc(S(=O)(=O)c3ccc([N+](=O)[O-])cc3)cc2)n1 | Non-Toxic | – |
| NC(=O)C1=CN([C@@H]2O[C@H](COP(=O)(O)OP(=O)(O)OC[C@H]3O[C@@H](n4cnc5c(N)ncnc54)[C@H](O)[C@@H]3O)[C@@H](O)[C@H]2O)C=CC1 | – | ~3.90 |
